Literature values, collected in patent publication US20220105100A1, “SAFE BRINZOLAMIDE AND BRIMONIDINE COMPOSITIONS WITH ENHANCED BENZALKONIUM CHLORIDE CONTENT” (Somerset Therapeutics, LLC, priority 2020, published 2022).

Conditions: laboratory, experimental, and clinical studies

benzalkonium chloride
ophthalmological side effects: causing tear film instability, loss of goblet cells, conjunctival squamous metaplasia and apoptosis, disruption of the conical epithelium barrier, and damage to deeper ocular tissues
